Source: article PMC4261083, “An atypical residue in the pore of Varroa destructor GABA-activated RDL receptors affects picrotoxin block and thymol modulation” (Insect Biochemistry and Molecular Biology, 2014)
Substitutions are numbered along the chain they refer to.

Experiments:
Assay type in all cases: cell-based
[1] = biological target: T1, 4M2 mutant Drosophila RDL receptor (N-7′H, T6′M, A20′S and A21′Q) (Drosophila melanogaster, UniProt P25123, A319S/A320Q/N292H/T305M); details: 4M2 RDL
T1 construct: expressed in transfected cells; host or cells: Xenopus laevis oocytes injected with cRNA
T1 sequence (P25123 45-606 N292H/T305M/A319S/A320Q): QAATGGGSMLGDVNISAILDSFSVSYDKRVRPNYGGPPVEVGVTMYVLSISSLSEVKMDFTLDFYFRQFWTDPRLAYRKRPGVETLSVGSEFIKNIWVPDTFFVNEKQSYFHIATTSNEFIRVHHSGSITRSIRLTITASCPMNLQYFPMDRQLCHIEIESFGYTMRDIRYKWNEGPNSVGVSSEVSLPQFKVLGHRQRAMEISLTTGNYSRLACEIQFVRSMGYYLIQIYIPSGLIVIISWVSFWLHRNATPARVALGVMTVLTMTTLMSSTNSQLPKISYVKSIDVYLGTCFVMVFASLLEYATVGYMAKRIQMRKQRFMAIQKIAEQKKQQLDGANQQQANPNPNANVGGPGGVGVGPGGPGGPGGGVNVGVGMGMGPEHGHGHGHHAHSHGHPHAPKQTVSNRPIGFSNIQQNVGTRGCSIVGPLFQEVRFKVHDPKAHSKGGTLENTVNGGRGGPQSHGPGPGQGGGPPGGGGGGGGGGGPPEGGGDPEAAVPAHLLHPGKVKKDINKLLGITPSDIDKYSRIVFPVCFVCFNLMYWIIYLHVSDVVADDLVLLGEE
Procedure: (§1) X. laevis oocyte-positive females were purchased from NASCO (Fort Atkinson, Wisconsin, USA) and maintained according to standard methods. Harvested stage V-VI Xenopus oocytes were washed in four changes of ND96 (96 mM NaCl, 2 mM KCl, 1 mM MgCl2, 1 mM CaCl2, 5 mM HEPES, pH 7.5), de-folliculated in 1.5 mg ml^−1 collagenase Type 1A for approximately 2 h, washed again in four changes of ND96 and stored in ND96 containing 2.5 mM sodium pyruvate, 0.7 mM theophylline and […].
(§2) Site directed mutagenesis was performed with the QuikChange mutagenesis kit (Agilent, La Jolla, CA). cRNA was transcribed in vitro from linearised pGEMHE cDNA template using the mMessage mMachine T7 Transcription kit (Ambion, Austin, Texas, USA). Stage V and VI oocytes were injected with 5 ng cRNA, incubated at 18 °C, and currents recorded 18–24 h post-injection.
(§3) Currents were recorded at 5 kHz and filtered at a frequency of 1 kHz. Micro-electrodes were fabricated from borosilicate glass (GC120TF-10, Harvard Apparatus, Edenbridge, Kent, UK) using a one stage horizontal pull (P-87, Sutter Instrument Company, California, USA) and filled with 3 M KCl. […] Oocytes were perfused with ND96 at a constant rate of 12 ml min^−1. Drug application was via a simple gravity fed system calibrated to run at the same rate.
(§4) Analysis and curve fitting was performed using Prism v5 (GraphPad Software, San Diego, California, USA). Concentration-response data for each oocyte was normalised to the maximum current for that oocyte. The mean and S.E.M. for a series of oocytes were fitted to the four parameter logistic equation in Prism.

[2] = biological target: T2, T6′M mutant Drosophila RDL receptor (Drosophila melanogaster, UniProt P25123, T305M); test: GABA activation of RDL receptors, two electrode voltage clamp in Xenopus oocytes
T2 construct: expressed in transfected cells; host or cells: Xenopus laevis oocytes injected with cRNA
T2 sequence (P25123 45-606 T305M): T1 sequence (P25123 45-606 N292H/T305M/A319S/A320Q) with H248N, S275A, Q276A
Procedure: as §1, §2, §3, §4

[3] = biological target: T3, A21′Q mutant Drosophila RDL receptor (Drosophila melanogaster, UniProt P25123, A320Q); test: as above
T3 construct: expressed in transfected cells; host or cells: Xenopus laevis oocytes injected with cRNA
T3 sequence (P25123 45-606 A320Q): T1 sequence (P25123 45-606 N292H/T305M/A319S/A320Q) with H248N, M261T, S275A
Procedure: as §1, §2, §3, §4

Row | SMILES | Effect of thymol on GABA-induced responses ([1]; 100 μM thymol, at some GABA concentrations) | Fold change in EC50 ([1]; GABA EC50 control vs +100 μM thymol) | % Imax ([1]; GABA concentration-response in presence of 100 μM thymol) | GABA nH (Hill slope) [2] | GABA nH (Hill slope) [3]
1 | Cc1ccc(C(C)C)c(O)c1 [Thymol, thymol] | inhibition | 3.0 | 52 ± 4% | – | –
2 | NCCCC(=O)O [GABA] | – | – | – | 1.4 ± 0.2 | 1.9 ± 0.4
